The structures appear in SMILES notation. ≈ marks a conversion by molar mass, not a printed value.

This data set is described as follows: Kinetic solubility of compound by measuring concentration at pH 7.4 in saturated PBS buffer by UV LCMS/MS using calibration curves. The assay has been performed by Enamine biological services, Bienta Ltd.The protocol is publicly available: dx.doi.org/10.17504/protocols.io.j8nlk8y41l5r/v1. It is filed as physicochemical. The following applies: PBS buffer.

With `CC(C)[C@@H](Nc1ncnc2[nH]c(C(=O)N[C@H]3CCN(C)C3)cc12)c1ccc2c(c1)S(=O)(=O)CCC2`, the kinetic solubility (usually solubility judged after dilution from a stock solution rather than from solid) was determined as 392 µM (≈ 195 µg/mL).
`CNC(=O)c1cccc(-c2cc3c(N[C@@H](c4ccc5c(c4)S(=O)(=O)CCC5)C(C)C)ncnc3[nH]2)c1` registered a solubility (kinetic) of 15 µM (≈ 7.55 µg/mL).
`COc1ccc([C@H](Cc2nnn[nH]2)NC(=O)c2ncnc3[nH]ccc23)cc1` registered a solubility (kinetic) of 367 µM (≈ 134 µg/mL).
In turn, `CC(C)(C)[C@H](Nc1ncnc2[nH]c(-c3cnn(CC(N)=O)c3)cc12)c1ccc2c(c1)OCCO2` displayed a kinetic solubility of 89 µM (≈ 41.1 µg/mL).
Then `C[C@H](C(=O)O)[C@@H](NC(=O)c1ncnc2[nH]ccc12)c1ccc(Br)cc1`, with 358 µM (≈ 144 µg/mL); and `CC(C)[C@H](Nc1ncnc2[nH]c(-c3cnn(C)c3C#N)cc12)c1ccc2c(c1)NC(=O)CO2`, with 26 µM (≈ 11.5 µg/mL); and `CNC(=O)c1cccc(-c2cc3c(N[C@H](c4ccc5c(c4)S(=O)(=O)CCC5)C(C)C)ncnc3[nH]2)c1`, with 13 µM (≈ 6.55 µg/mL).
Then `CCNC(=O)c1cc2c(N[C@H](c3ccc4c(c3)OCCO4)C(C)C)ncnc2[nH]1`, with 263 µM (≈ 104 µg/mL); and `CNC(=O)c1cc2c(N[C@H](c3ccc4c(c3)S(=O)(=O)CCC4)C(C)C)ncnc2[nH]1`, with 374 µM (≈ 160 µg/mL).
Compound `CC(C)[C@H](Nc1ncnc2[nH]c(-c3cnn(CC(=O)N(C)C)c3)cc12)c1ccc2c(c1)OCCO2` gave a solubility (kinetic) of 19 µM (≈ 9.04 µg/mL).
As to `CC(C)[C@H](Nc1ncnc2[nH]c(C(=O)N[C@H]3CCN(C)C3)cc12)c1ccc2c(c1)S(=O)(=O)CCC2`, the solubility (kinetic) was 396 µM (≈ 197 µg/mL).
`CC(C)[C@H](Nc1ncnc2[nH]c(-c3cnn(CC(=O)N(C)C)c3)cc12)c1ccc2c(c1)S(=O)(=O)CCC2` displayed a solubility (kinetic) of 361 µM (≈ 188 µg/mL).

For the origin of these results see ChEMBL document CHEMBL5442663, “ASAP - Solubility” (2024).
